Source: patent US11873496B2, “Methods of altering gene expression by perturbing transcription factor multimers that structure regulatory loops” (Whitehead Institute for Biomedical Research, priority 2017, dated 2024)

Experiments:
[1] = test system: YY1-YY1 enhancer-promoter interactions; test: H3K27ac HiChIP of enhancer-promoter interactions after YY1 degradation and washout; format: cell-based, mouse; settings: mES cells
Procedure: HiChIP was performed as described in (Mumbach et al., 2016) with a few modifications. Ten million cells cross-linked for 10 min at room temperature with 1% formaldehyde in growth media and quenched in 0.125 M glycine. After washing twice with ice-cold PBS, the supernatant was aspirated and the cell pellet was flash frozen in liquid nitrogen and stored at −80° C.
Cross-linked cell pellets were thawed on ice, resuspended in 800 μL of ice-cold Hi-C lysis buffer (10 mM Tris-HCl pH 8.0, 10 mM NaCl, and 0.2% IGEPAL CA-630 with 1× cOmplete protease inhibitor (Roche, 11697498001)), and incubated at 4° C. for 30 minutes with rotation. Nuclei were pelleted by centrifugation at 2500 rcf for 5 min at 4° C. and washed once with 500 μL of ice-cold Hi-C lysis buffer. After removing supernatant, nuclei were resuspended in 100 μL of 0.5% SDS and incubated at 62° C. for 10 minutes. SDS was quenched by adding 335 μL of 1.5% Triton X-100 and incubating for 15 minutes at 37° C. After the addition of 50 μL of 10×NEB Buffer 2 (NEB, B7002) and 375 U of MboI restriction enzyme (NEB, R0147), chromatin was digested at 37° C. for 2 hours with rotation. Following digestion, MboI enzyme was heat inactivated by incubating the nuclei at 62° C. for 20 min. […]

[2] = biological target: T1, FKBP degron-tagged YY1 protein (Mus musculus, UniProt Q00899+Q8C7D2); test: dTAG inducible degradation of FKBP tagged YY1 (western blot); format: cell-based
T1 construct: A clonal homozygous knock-in line expressing FKBP tagged YY1 was used for the degradation experiments; endogenous in cells; host or cells: V6.5 mES cells, clonal homozygous knock-in (repair plasmids pAW62.YY1.FKBP.knock-in.mCherry and pAW63.YY1.FKBP.knock-in.BFP)
Procedure: For the generation of the endogenously tagged lines, five hundred thousand mES cells were transfected with 2.5 ug Cas9 plasmid and 1.25 ug non-linearized repair plasmid 1 (pAW62.YY1.FKBP.knock-in.mCherry) and 1.25 ug non-linearized repair plasmid 2 (pAW63.YY1.FKBP.knock-in.BFP). Cells were sorted after 48 hours for the presence of GFP. Cells were expanded for five days and then sorted again for double positive mCherry and BFP cells. Thirty thousand mCherry+/BFP+ sorted cells were plated in a six-well plate in a 1:2 serial dilution (first well 15,000 cells, second well 7,500 cells, etc). The cells were grown for approximately one week in 2i medium and then individual colonies were picked using a stereoscope into a 96-well plate. Cells were expanded and genotyped by PCR (YY1_gPCR_3F/3R, Table S3). Clones with a homozygous knock-in tag were further expanded and used for experiments.
A clonal homozygous knock-in line expressing FKBP tagged YY1 was used for the degradation experiments. Cells were grown two passages off MEFs and then treated with dTAG-47 at a concentration of 500 nM for 24 hours.
The homozygous knock-in line expressing FKBP tagged YY1 was cultured on 2i+LIF media. Cells were treated with dTAG-47 at a concentration of 500 nM for 24 hours. After 24 hours of drug treatment, cells were washed three times with PBS and passaged onto a new plate. […]

HA-tagged YY1 = test: co-immunoprecipitation from nuclear extract treated with RNase A before IP with anti-tag antibodies, western blot quantification
[3] = test system: linear DNA template containing YY1 binding sites; test: In vitro DNA circularization assay (T4 DNA ligase); format: biochemical; settings: 0.25 nM DNA, 0.12 μg/μL protein, 20° C.; competitor 100 nM
Procedure: First, two plasmids (pAW49, pAW79) were generated. pAW49 contains YY1 binding sites separated by ˜3.5 kb of intervening DNA. pAW79 is identical except it contains filler DNA instead of the YY1 motifs. The intervening DNA was chosen based on looking at YY1 ChIP-seq and motif distribution in mES cells to identify regions that lacked YY1 occupancy and YY1 binding motifs. The YY1 binding motifs were chosen based on successful EMSAs (Sigova et al., 2015). Approximately 200 bp of sequence was added between the binding motifs and the termini in order to provide flexibility for the termini to ligate. The plasmid was built using Gibson assembly.
Next, a PCR was run using plasmid as a template to generate a linear piece of DNA (Table S5). This PCR product was PCR purified (Qiagen 28104) and then digested with BamHI (NEB R3136) and PCR purified. The BamHI digested template was used in the ligation assay.
The ligation assay was carried out as follows. Reactions were prepared on ice in 66 μL with the following components:
BSA control: 0.25 nM DNA, 1× T4 DNA ligase buffer (NEB B0202S), H2O, 0.12 μg/μL of BSA […]
Quantification was done using Image Lab version 5.2.1 (Bio-Rad Laboratories). First, band density of the starting product and ligation product were measured. Then the percent circularized was calculated: (ligation product)/(ligation product+starting band)*100. […]

YY1 = YY1 (Homo sapiens, UniProt P25490 P25490:1-414); test: EMSA; 20 fmol probe, 2 ug YY1, 5 mM MgCl2, 0.1 mM ZnCl2, poly dIdC, RT; abolished by 200-fold cold competitor; settings: label: 5' biotin
Procedure: To generate the biotin labeled probe, 30-nucleotide-long 5' biotinylated single stranded oligonucleotides (IDT) were annealed in 10 mM Tris pH 7.5, 50 mM NaCl, and 1 mM EDTA at a 50 uM concentration. The same protocol was used to generate the cold competitor. The probe was serially diluted to a concentration of 10 fmol/4 and cold competitor to a concentration of 2 pmol/µL. 2 µL of diluted probe and cold competitor were used for each binding reaction for a final amount of 20 fmol labeled probe and 4 pmol cold competitor (200 fold excess) in each reaction.
Binding reactions were set-up in a 20 µL volume containing 1× Binding Buffer (10 mM Tris, 50 mM KCl, 1 mM DTT; pH 7.5), 2.5% Glycerol, 5 mM MgCl2, 50 ng/4 Poly dl dC, 0.05% Np-40, 0.1 mM ZnCl2, 10 mM Hepes, and 2 ug of recombinant YY1 protein. Binding reactions were pre-incubated for 20 mins at room temperature with or without the cold competitor. Labeled probe was then added to binding reactions and incubated for 80 minutes at room temperature. […] The DNA was then crosslinked to the membrane by placing the membrane on a Dark Reader Transilluminator for 15 mins. The membrane was allowed to air dry at room temperature overnight and chemiluminescence detected the following day. […]

T1 sequence (Q00899 with tags, fused parts or gaps): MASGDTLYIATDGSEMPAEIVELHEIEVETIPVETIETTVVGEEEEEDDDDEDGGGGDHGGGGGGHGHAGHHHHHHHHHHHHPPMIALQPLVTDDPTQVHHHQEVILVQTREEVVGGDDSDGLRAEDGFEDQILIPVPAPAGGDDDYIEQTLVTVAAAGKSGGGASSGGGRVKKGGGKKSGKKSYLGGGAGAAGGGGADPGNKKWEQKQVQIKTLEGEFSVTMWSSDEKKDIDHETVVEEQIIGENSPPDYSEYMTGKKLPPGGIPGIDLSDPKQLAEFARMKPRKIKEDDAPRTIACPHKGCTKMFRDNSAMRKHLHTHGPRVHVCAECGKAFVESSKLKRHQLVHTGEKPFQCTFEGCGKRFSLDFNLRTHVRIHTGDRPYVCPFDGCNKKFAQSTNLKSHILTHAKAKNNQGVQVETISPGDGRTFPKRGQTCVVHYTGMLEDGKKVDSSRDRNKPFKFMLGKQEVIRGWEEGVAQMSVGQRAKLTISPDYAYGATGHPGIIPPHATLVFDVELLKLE
T1 sequence (Q8C7D2 whole entry): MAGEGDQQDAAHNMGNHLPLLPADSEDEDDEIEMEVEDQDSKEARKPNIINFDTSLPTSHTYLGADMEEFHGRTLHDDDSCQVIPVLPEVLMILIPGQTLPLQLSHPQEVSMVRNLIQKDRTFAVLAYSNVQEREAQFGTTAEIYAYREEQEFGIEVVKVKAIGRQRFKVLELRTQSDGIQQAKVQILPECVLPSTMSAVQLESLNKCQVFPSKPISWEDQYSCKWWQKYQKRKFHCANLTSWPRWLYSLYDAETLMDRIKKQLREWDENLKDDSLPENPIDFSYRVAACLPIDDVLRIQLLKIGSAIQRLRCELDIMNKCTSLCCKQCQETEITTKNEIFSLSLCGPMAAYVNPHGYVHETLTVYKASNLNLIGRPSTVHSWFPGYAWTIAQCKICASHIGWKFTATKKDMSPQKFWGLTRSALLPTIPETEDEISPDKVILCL
T1 sequence (Q3U1J4 whole entry partner): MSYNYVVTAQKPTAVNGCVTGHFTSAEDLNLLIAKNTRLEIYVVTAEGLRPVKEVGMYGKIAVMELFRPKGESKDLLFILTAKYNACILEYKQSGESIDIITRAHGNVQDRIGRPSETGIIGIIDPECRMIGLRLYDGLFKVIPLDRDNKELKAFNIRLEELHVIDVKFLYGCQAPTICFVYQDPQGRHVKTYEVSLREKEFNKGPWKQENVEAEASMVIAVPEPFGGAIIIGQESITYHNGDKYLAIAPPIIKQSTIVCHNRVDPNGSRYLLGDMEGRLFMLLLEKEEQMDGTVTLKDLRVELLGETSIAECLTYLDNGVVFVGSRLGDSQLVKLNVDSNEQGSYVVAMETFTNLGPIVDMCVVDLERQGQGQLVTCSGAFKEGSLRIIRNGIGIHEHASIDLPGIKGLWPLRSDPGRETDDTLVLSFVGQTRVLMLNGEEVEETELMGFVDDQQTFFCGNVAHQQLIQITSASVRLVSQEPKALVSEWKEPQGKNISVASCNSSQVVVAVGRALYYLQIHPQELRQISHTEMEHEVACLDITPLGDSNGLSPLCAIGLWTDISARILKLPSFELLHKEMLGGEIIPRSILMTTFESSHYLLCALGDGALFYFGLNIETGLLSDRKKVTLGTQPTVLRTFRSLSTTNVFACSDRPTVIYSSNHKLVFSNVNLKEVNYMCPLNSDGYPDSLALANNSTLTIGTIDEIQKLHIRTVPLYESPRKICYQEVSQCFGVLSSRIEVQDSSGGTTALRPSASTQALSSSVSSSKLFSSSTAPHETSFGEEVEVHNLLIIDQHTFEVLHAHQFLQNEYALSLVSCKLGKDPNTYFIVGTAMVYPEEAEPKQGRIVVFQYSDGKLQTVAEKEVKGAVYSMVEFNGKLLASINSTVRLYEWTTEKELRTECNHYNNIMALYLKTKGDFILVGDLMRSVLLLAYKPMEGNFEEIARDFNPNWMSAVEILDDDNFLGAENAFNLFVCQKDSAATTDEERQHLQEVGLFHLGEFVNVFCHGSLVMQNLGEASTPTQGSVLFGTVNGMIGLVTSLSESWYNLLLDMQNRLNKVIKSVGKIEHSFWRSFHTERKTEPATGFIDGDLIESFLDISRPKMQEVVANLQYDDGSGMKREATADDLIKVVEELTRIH
Chain of HA-tagged YY1 (P25490 whole entry): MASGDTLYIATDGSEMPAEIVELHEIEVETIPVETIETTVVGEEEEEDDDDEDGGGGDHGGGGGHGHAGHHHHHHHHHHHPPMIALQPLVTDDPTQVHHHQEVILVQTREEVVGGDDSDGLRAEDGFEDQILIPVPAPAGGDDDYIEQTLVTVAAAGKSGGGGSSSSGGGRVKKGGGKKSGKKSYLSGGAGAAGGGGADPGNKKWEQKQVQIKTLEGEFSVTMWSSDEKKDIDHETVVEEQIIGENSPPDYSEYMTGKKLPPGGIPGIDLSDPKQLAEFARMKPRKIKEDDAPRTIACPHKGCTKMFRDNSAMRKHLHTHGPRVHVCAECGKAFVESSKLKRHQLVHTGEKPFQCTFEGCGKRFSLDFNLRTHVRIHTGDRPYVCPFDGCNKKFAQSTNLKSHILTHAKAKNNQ
Chain of YY1 (P25490 whole entry, one chain of several): as the sequence (P25490 whole entry) above

Molecule: CC[C@H](C(=O)N1CCCC[C@H]1C(=O)O[C@H](CCc1ccc(OC)c(OC)c1)c1ccccc1OCC(=O)NCCCCCCCCNc1ccc2c(c1)C(=O)N(C1CCC(=O)NC1=O)C2=O)c1cc(OC)c(OC)c(OC)c1 (stereo partly drawn) [dTAG-47, (2S)-(1R)-3-(3,4-dimethoxyphenyl)-1-(2-(2-((8-((2-(2,6-dioxopiperidin-3-yl)-1,3-dioxoisoindolin-5-yl)amino)octyl)amino)-2-oxoethoxy)phenyl)propyl 1-((S)-2-(3,4,5-trimethoxyphenyl)butanoyl)piperidine-2-carboxylate]
- enhancer-promoter interactions after YY1 degradation (H3K27ac HiChIP) ([1]; treated): loss in enhancer-promoter interactions
- enhancer-promoter interactions after washout and recovery of YY1 levels (H3K27ac HiChIP) ([1]; washout): substantial increase in enhancer-promoter interactions
- YY1 protein degradation ([2]; FKBP degron tag knocked-in to both alleles of Yy1, mES cells, 24 hours treatment): rapid proteasome-mediated degradation
- washout time allowing recovery of YY1 protein levels ([2]; after 24 hours treatment at 500 nM, drug withdrawal): 5 days

Molecule: FLAG-tagged YY1
- reduction in the amount of co-immunoprecipitated YY1 partner protein after RNase A treatment (HA-tagged YY1): 60%

Molecule: bovine serum albumin (BSA): control protein in the DNA circularization assay
- rate of DNA circularization [3]: did not increase the rate of DNA ligation

B1: YY1 EMSA probe (dsDNA)
DNA 1: TCGCTCCCCGGCCATCTTGGCGGCTGGTGT
DNA 2: ACACCAGCCGCCAAGATGGCCGGGGAGCGA
- binding result (YY1): binds

B2: competing 200 base pair DNA fragment: 200 base pair DNA fragment containing the YY1 consensus binding sequence, SEQ ID NO: 28 (nucleic acid)
DNA: GAGCAACAACAACAACGAACCGGTTCGACCTCCCCGGCCATCTTTCGACCTCCCCGGCCATCTTTCGACCTCCCCGGCCATCTTTCGACCTCCCCGGCCATCTTTCGACCTCCCCGGCCATCTTTCGACCTCCCCGGCCATCTTTCGACCTCCCCGGCCATCTTTCGACCTCCCGTCGACAGAGGCAGCAAAAGCCAGA
modifications: competitor DNA
- rate of DNA circularization [3]: abrogated circularization
